One test concerns the target M3 muscarinic receptor (Rattus norvegicus, UniProt P08483). The class given is binding.
The target in a further test is M2 muscarinic receptor (Rattus norvegicus, UniProt P10980). The test is classed as binding.
Chain of M2 muscarinic receptor (P10980 whole entry): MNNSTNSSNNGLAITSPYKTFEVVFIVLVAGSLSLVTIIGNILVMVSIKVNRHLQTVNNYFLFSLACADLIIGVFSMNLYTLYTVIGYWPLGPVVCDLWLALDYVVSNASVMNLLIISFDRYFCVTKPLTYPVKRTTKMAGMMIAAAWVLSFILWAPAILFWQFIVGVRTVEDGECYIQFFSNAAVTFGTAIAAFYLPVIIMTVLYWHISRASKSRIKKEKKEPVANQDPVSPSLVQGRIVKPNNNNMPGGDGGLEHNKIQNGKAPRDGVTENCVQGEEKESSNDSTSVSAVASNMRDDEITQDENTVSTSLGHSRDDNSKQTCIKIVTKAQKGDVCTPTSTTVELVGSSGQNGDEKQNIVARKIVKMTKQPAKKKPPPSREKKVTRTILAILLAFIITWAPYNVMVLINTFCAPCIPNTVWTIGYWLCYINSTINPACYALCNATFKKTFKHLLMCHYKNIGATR

Chain of M3 muscarinic receptor (P08483 whole entry): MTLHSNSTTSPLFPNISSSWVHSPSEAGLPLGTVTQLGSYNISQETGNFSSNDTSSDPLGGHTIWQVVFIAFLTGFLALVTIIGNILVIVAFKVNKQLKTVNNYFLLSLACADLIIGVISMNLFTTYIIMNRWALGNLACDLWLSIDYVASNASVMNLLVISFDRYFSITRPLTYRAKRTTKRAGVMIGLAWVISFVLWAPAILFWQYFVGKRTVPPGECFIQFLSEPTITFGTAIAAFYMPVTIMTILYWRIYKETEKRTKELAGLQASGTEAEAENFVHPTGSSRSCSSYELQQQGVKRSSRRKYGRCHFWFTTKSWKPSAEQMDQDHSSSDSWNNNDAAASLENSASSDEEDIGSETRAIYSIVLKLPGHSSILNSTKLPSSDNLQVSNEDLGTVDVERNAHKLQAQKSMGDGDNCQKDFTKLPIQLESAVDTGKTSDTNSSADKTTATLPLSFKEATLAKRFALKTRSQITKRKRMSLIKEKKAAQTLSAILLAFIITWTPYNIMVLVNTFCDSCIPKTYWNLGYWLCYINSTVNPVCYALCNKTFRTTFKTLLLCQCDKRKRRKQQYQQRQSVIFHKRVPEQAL

In the case of “(3S)-1-[(phenylacetyl)pyrrolidin-3-yl]cyclopentyl(hydroxy)phenyl acetate [Compound No. 11]”, the “Receptor Binding Assay M3 pki” value on M3 muscarinic receptor is listed as below 6. Also, the “Receptor Binding Assay M2 PKi” value at M2 muscarinic receptor is listed as below 6.
